According to patent US20250213527A1, “FORMULATIONS OF PSILOCYBIN ANALOGS AND METHODS OF USE” (priority 2021, published 2025):
Entries after “also recorded” stand apart in the source; their conditions may differ.

Key:
[1] = Stability on standing of amorphous form from DSC melt/crash cooling (XRPD); type: physicochemical; settings: amorphous free base from melt/crash cooling (>185 °C/30 °C)
[2] = Plasma pharmacokinetics and bioavailability in rats, oral gavage and intravenous (bolus); settings: rat plasma, Group 1, IV, psilocin + psilocin-d10 1 + 1 mg/kg; label = analyte; IAD = immediately after dosing
[3] = Psilocin-d10 pharmacokinetics in female beagle dogs, oral gavage and intravenous (bolus); settings: for AUC(0-inf) / AUC(0-t) / C0 / clearance / Cmax / Tmax / Vd / half-life / bioavailability: female, beagle, dog, plasma; for AUC(0-inf): AUC0-inf; for C0: C0, female dog plasma
[4] = Pharmacokinetics in male beagle dogs after oral administration by powder in capsule (PIC) or orally disintegrating tablet (ODT); settings: dog, plasma, 5 mg
[5] = female dog plasma, single IV bolus 0.20 mg/kg, Mean (N=3)
[6] = female dog plasma, single IV bolus 0.20 mg/kg, Median (N=3)
[7] = female dog plasma, single IV bolus 0.20 mg/kg, animal 60F
[8] = female dog plasma, single IV bolus 0.20 mg/kg, animal 61F
[9] = female dog plasma, single IV bolus 0.20 mg/kg, animal 723F
[10] = female dog plasma, single oral gavage 1.00 mg/kg, Mean (N=3)
[11] = female dog plasma, single oral gavage 1.00 mg/kg, Median (N=3)
[12] = female dog plasma, single oral gavage 1.00 mg/kg, animal 60F
[13] = female dog plasma, single oral gavage 1.00 mg/kg, animal 61F
[14] = female dog plasma, single oral gavage 1.00 mg/kg, animal 723F
[15] = iv, 0.2 mg/kg, female dog plasma, single IV bolus 0.20 mg/kg, Mean (N=3)
[16] = iv, 0.2 mg/kg, female dog plasma, single IV bolus 0.20 mg/kg, animal 61F
[17] = po, 1 mg/kg, female dog plasma, single oral gavage 1.00 mg/kg, Mean (N=3)
[18] = po, 1 mg/kg, female dog plasma, single oral gavage 1.00 mg/kg, Median (N=3)
[19] = po, 1 mg/kg, female dog plasma, single oral gavage 1.00 mg/kg, animal 60F
[20] = po, 1 mg/kg, female dog plasma, single oral gavage 1.00 mg/kg, animal 61F
[21] = po, 1 mg/kg, female dog plasma, single oral gavage 1.00 mg/kg, animal 723F

In the case of [2H]C([2H])([2H])N(C([2H])([2H])[2H])C([2H])([2H])C([2H])([2H])c1c[nH]c2cccc(O)c12 [Compound I-3, 3-(2-(bis(methyl-d3)amino)ethyl-1,1,2,2-d4)-1H-indol-4-ol], the “stability of amorphous form on standing” value [1] is reported as “crystallized overnight to crystal polymorph pattern 2; also recorded: unstable upon standing”, the Tmax [2] is reported as “IAD” and the “time of last detectable plasma level” value ([3]; dogs, oral administration) is reported as 8 h. For the same molecule, the “time of peak plasma levels” value ([3]; dogs, oral administration) was 0.5 h, the “DN AUC0-inf” value [3, 5] was 448 (h*ng/mL)/(mg/kg) and the “DN Cmax” value [3, 5] was 229 (ng/mL)/(mg/kg). The “DN AUC0-inf” value [3, 6] was 479 (h*ng/mL)/(mg/kg), the “DN Cmax” value [3, 6] was 230 (ng/mL)/(mg/kg) and the “DN AUC0-inf” value [3, 7] was 366 (h*ng/mL)/(mg/kg). For the same molecule, the “DN Cmax” value [3, 7] was 230 (ng/mL)/(mg/kg), the “DN AUC0-inf” value [3, 8] was 479 (h*ng/mL)/(mg/kg) and the “DN Cmax” value [3, 8] was 220 (ng/mL)/(mg/kg). The “DN AUC0-inf” value [3, 9] was 500 (h*ng/mL)/(mg/kg), the “DN Cmax” value [3, 9] was 239 (ng/mL)/(mg/kg) and the “DN AUC0-inf” value [3, 10] was 405 (h*ng/mL)/(mg/kg). The “DN Cmax” value [3, 10] was 146 (ng/mL)/(mg/kg), the “DN AUC0-inf” value [3, 11] was 414 (h*ng/mL)/(mg/kg) and the “DN Cmax” value [3, 11] was 132 (ng/mL)/(mg/kg). The “DN AUC0-inf” value [3, 12] was 374 (h*ng/mL)/(mg/kg), the “DN Cmax” value [3, 12] was 132 (ng/mL)/(mg/kg) and the “DN AUC0-inf” value [3, 13] was 414 (h*ng/mL)/(mg/kg). For the same molecule, the “DN Cmax” value [3, 13] was 179 (ng/mL)/(mg/kg), the “DN AUC0-inf” value [3, 14] was 426 (h*ng/mL)/(mg/kg) and the “DN Cmax” value [3, 14] was 126 (ng/mL)/(mg/kg). For the same molecule, the AUC(0-inf) [3, 15] was 89.6 ng·h/mL, the AUC(0-inf) ([3]; iv, 0.2 mg/kg, female dog plasma, single IV bolus 0.20 mg/kg, Median (N=3)) was 95.8 ng·h/mL and the AUC(0-inf) ([3]; iv, 0.2 mg/kg, female dog plasma, single IV bolus 0.20 mg/kg, animal 60F) was 73.3 ng·h/mL. It also gave an AUC(0-inf) [3, 16] of 95.8 ng·h/mL, an AUC(0-inf) ([3]; iv, 0.2 mg/kg, female dog plasma, single IV bolus 0.20 mg/kg, animal 723F) of 99.9 ng·h/mL and an AUC(0-t) ([3]; iv, 0.2 mg/kg, AUC0-t, female dog plasma, single IV bolus 0.20 mg/kg, Mean (N=3)) of 77.8 ng·h/mL. The AUC(0-t) ([3]; iv, 0.2 mg/kg, AUC0-t, female dog plasma, single IV bolus 0.20 mg/kg, Median (N=3)) was 80.7 ng·h/mL, the AUC(0-t) ([3]; iv, 0.2 mg/kg, AUC0-t, female dog plasma, single IV bolus 0.20 mg/kg, animal 60F) was 67 ng·h/mL and the AUC(0-t) ([3]; iv, 0.2 mg/kg, AUC0-t, female dog plasma, single IV bolus 0.20 mg/kg, animal 61F) was 80.7 ng·h/mL. The AUC(0-t) ([3]; iv, 0.2 mg/kg, AUC0-t, female dog plasma, single IV bolus 0.20 mg/kg, animal 723F) was 85.8 ng·h/mL, the C0 ([3]; iv, 0.2 mg/kg, single IV bolus 0.20 mg/kg, Mean (N=3)) was 57.3 ng/mL and the C0 ([3]; iv, 0.2 mg/kg, single IV bolus 0.20 mg/kg, Median (N=3)) was 62 ng/mL. The C0 ([3]; iv, 0.2 mg/kg, single IV bolus 0.20 mg/kg, animal 60F) was 69.5 ng/mL, the C0 ([3]; iv, 0.2 mg/kg, single IV bolus 0.20 mg/kg, animal 61F) was 40.5 ng/mL and the C0 ([3]; iv, 0.2 mg/kg, single IV bolus 0.20 mg/kg, animal 723F) was 62 ng/mL. The clearance ([3]; iv, 0.2 mg/kg, CL, female dog plasma, single IV bolus 0.20 mg/kg, Mean (N=3)) was 37.8 mL/min/kg, the clearance ([3]; iv, 0.2 mg/kg, CL, female dog plasma, single IV bolus 0.20 mg/kg, animal 60F) was 45.5 mL/min/kg and the clearance ([3]; iv, 0.2 mg/kg, CL, female dog plasma, single IV bolus 0.20 mg/kg, animal 723F) was 33.3 mL/min/kg. For the same molecule, the clearance ([3]; iv, 0.2 mg/kg, Clearance (CL), dogs) was 37.8 mL/min/kg, the Cmax ([3]; iv, 0.2 mg/kg, Cmax, female dog plasma, single IV bolus 0.20 mg/kg, Mean (N=3)) was 45.8 ng/mL and the Cmax ([3]; iv, 0.2 mg/kg, Cmax, female dog plasma, single IV bolus 0.20 mg/kg, Median (N=3)) was 45.9 ng/mL. For the same molecule, the Cmax ([3]; iv, 0.2 mg/kg, Cmax, female dog plasma, single IV bolus 0.20 mg/kg, animal 60F) was 45.9 ng/mL, the Cmax ([3]; iv, 0.2 mg/kg, Cmax, female dog plasma, single IV bolus 0.20 mg/kg, animal 61F) was 43.9 ng/mL and the Cmax ([3]; iv, 0.2 mg/kg, Cmax, female dog plasma, single IV bolus 0.20 mg/kg, animal 723F) was 47.7 ng/mL. The Tmax [3, 15] was 0.333 h, the Tmax [3, 16] was 0.5 h and the Vd ([3]; iv, 0.2 mg/kg, Vss, female dog plasma, single IV bolus 0.20 mg/kg, Mean (N=3)) was 4.01 L/kg. It also gave a Vd ([3]; iv, 0.2 mg/kg, Vss, female dog plasma, single IV bolus 0.20 mg/kg, Median (N=3)) of 3.96 L/kg, a Vd ([3]; iv, 0.2 mg/kg, Vss, female dog plasma, single IV bolus 0.20 mg/kg, animal 60F) of 3.96 L/kg and a Vd ([3]; iv, 0.2 mg/kg, Vss, female dog plasma, single IV bolus 0.20 mg/kg, animal 61F) of 4.28 L/kg. It also gave a Vd ([3]; iv, 0.2 mg/kg, Vss, female dog plasma, single IV bolus 0.20 mg/kg, animal 723F) of 3.79 L/kg, a half-life ([3]; iv, 0.2 mg/kg, elimination half-life, dogs) of 1.35 h and an AUC(0-t) ([3]; iv, 0.2 mg/kg, mean AUC0-t, female dog plasma, single intravenous (bolus) dose) of 77.8 ng·h/mL. For the same molecule, the Cmax ([3]; iv, 0.2 mg/kg, mean Cmax, female dog plasma, single intravenous (bolus) dose) was 45.8 ng/mL, the half-life ([3]; iv, 0.2 mg/kg, t1/2, female dog plasma, single IV bolus 0.20 mg/kg, Mean (N=3)) was 1.37 h and the half-life ([3]; iv, 0.2 mg/kg, t1/2, female dog plasma, single IV bolus 0.20 mg/kg, Median (N=3)) was 1.41 h. It also gave a half-life ([3]; iv, 0.2 mg/kg, t1/2, female dog plasma, single IV bolus 0.20 mg/kg, animal 60F) of 1.16 h, a half-life ([3]; iv, 0.2 mg/kg, t1/2, female dog plasma, single IV bolus 0.20 mg/kg, animal 61F) of 1.55 h and a half-life ([3]; iv, 0.2 mg/kg, t1/2, female dog plasma, single IV bolus 0.20 mg/kg, animal 723F) of 1.41 h. It also gave a Vd ([3]; iv, 0.2 mg/kg, volume of distribution at steady state (VSS), dogs, intravenous) of 4.01 L/kg, an AUC(0-inf) [3, 17] of 405 ng·h/mL and an AUC(0-inf) [3, 18] of 414 ng·h/mL. It also gave an AUC(0-inf) [3, 19] of 374 ng·h/mL, an AUC(0-inf) [3, 20] of 414 ng·h/mL and an AUC(0-inf) [3, 21] of 426 ng·h/mL. For the same molecule, the AUC(0-t) ([3]; po, 1 mg/kg, AUC0-t, female dog plasma, single oral gavage 1.00 mg/kg, Mean (N=3)) was 387 ng·h/mL, the AUC(0-t) ([3]; po, 1 mg/kg, AUC0-t, female dog plasma, single oral gavage 1.00 mg/kg, Median (N=3)) was 399 ng·h/mL and the AUC(0-t) ([3]; po, 1 mg/kg, AUC0-t, female dog plasma, single oral gavage 1.00 mg/kg, animal 61F) was 399 ng·h/mL. For the same molecule, the AUC(0-t) ([3]; po, 1 mg/kg, AUC0-t, female dog plasma, single oral gavage 1.00 mg/kg, animal 723F) was 404 ng·h/mL, the Cmax ([3]; po, 1 mg/kg, Cmax, female dog plasma, single oral gavage 1.00 mg/kg, Mean (N=3)) was 146 ng/mL and the Cmax ([3]; po, 1 mg/kg, Cmax, female dog plasma, single oral gavage 1.00 mg/kg, Median (N=3)) was 132 ng/mL. The Cmax ([3]; po, 1 mg/kg, Cmax, female dog plasma, single oral gavage 1.00 mg/kg, animal 60F) was 132 ng/mL, the Cmax ([3]; po, 1 mg/kg, Cmax, female dog plasma, single oral gavage 1.00 mg/kg, animal 61F) was 179 ng/mL and the Cmax ([3]; po, 1 mg/kg, Cmax, female dog plasma, single oral gavage 1.00 mg/kg, animal 723F) was 126 ng/mL. It also gave a bioavailability ([3]; po, 1 mg/kg, F (Bioavailability), female dog plasma, single oral gavage 1.00 mg/kg, Mean (N=3)) of 91.3%, a bioavailability ([3]; po, 1 mg/kg, F (Bioavailability), female dog plasma, single oral gavage 1.00 mg/kg, Median (N=3)) of 186% and a bioavailability ([3]; po, 1 mg/kg, F (Bioavailability), female dog plasma, single oral gavage 1.00 mg/kg, animal 60F) of 102%. For the same molecule, the bioavailability ([3]; po, 1 mg/kg, F (Bioavailability), female dog plasma, single oral gavage 1.00 mg/kg, animal 61F) was 86.5%, the bioavailability ([3]; po, 1 mg/kg, F (Bioavailability), female dog plasma, single oral gavage 1.00 mg/kg, animal 723F) was 85.2% and the Tmax [3, 17] was 0.5 h. For the same molecule, the Tmax [3, 18] was 0.5 h, the Tmax [3, 19] was 0.5 h and the Tmax [3, 20] was 0.5 h. It also gave a Tmax [3, 21] of 0.5 h, a half-life ([3]; po, 1 mg/kg, elimination half-life, dogs) of 1.77 h and an AUC(0-t) ([3]; po, 1 mg/kg, mean AUC0-t, female dog plasma, single oral (gavage) dose) of 387 ng·h/mL. The Cmax ([3]; po, 1 mg/kg, mean Cmax, female dog plasma, single oral (gavage) dose) was 146 ng/mL, the bioavailability ([3]; po, 1 mg/kg, mean oral bioavailability (%F), dogs, oral 1 mg/kg) was 91.3% and the half-life ([3]; po, 1 mg/kg, t1/2, female dog plasma, single oral gavage 1.00 mg/kg, Mean (N=3)) was 1.77 h. The half-life ([3]; po, 1 mg/kg, t1/2, female dog plasma, single oral gavage 1.00 mg/kg, Median (N=3)) was 1.8 h, the half-life ([3]; po, 1 mg/kg, t1/2, female dog plasma, single oral gavage 1.00 mg/kg, animal 60F) was 1.82 h and the half-life ([3]; po, 1 mg/kg, t1/2, female dog plasma, single oral gavage 1.00 mg/kg, animal 61F) was 1.69 h. For the same molecule, the half-life ([3]; po, 1 mg/kg, t1/2, female dog plasma, single oral gavage 1.00 mg/kg, animal 723F) was 1.8 h, the Tmax [4] was 0.5 h and the Tmax ([4]; oral) was 1 h.
